Earlier results on 1 compound are cited in US20060135599A1, “Use for pharmaceutical composition” (GW Pharma Limited, priority 2002, published 2006).

Data set [1] relates to spasticity. As to conditions: oral, nine patients.
Data set [2] deals with spasticity. The conditions noted are these: oral, 13 patients.

As for `CCCCCc1cc(O)c2c(c1)OC(C)(C)[C@@H]1CCC(C)=C[C@@H]21` [oral THC, Δ^9 tetrahydrocannabinol], the “spasticity compared with placebo” value in the data set on spasticity [1] is reported as “statistically significant reduction”. For the same compound, in the data set on spasticity [2], the “subjective improvements in spasticity” value is recorded as “significant subjective improvements”.
